The values that follow come from US11655456B2, “Engineered intestinal tissue and uses thereof” (Organovo, Inc., priority 2016, dated 2023).

Entries after “also recorded” stand apart in the source; their conditions may differ.

One data set has as its target T1, BCRP (Homo sapiens, UniProt Q9UNQ0).
T1 sequence (Q9UNQ0 1-655): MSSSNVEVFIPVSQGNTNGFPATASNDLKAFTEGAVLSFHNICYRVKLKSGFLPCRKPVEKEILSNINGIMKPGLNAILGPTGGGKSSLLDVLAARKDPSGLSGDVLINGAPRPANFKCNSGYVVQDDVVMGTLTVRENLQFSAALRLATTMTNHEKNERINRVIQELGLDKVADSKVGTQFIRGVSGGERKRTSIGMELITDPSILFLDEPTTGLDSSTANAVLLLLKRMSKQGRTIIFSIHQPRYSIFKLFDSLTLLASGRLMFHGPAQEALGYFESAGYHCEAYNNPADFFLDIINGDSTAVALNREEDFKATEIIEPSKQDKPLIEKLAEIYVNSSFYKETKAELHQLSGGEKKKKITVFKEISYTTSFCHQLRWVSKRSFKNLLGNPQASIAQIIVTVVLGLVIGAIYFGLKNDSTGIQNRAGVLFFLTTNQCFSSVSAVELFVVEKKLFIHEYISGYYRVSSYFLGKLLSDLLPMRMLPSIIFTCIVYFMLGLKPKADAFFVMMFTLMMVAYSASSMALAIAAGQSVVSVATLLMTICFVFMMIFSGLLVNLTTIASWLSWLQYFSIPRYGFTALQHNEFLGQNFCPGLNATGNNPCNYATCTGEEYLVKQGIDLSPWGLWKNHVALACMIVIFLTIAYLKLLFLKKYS
Here is the method:
FIGS. 25A-25D show P-gp and BCRP transporter function in 3D bioprinted intestinal tissue.
P-gp and BCRP function were tested in the 3D bioprinted intestinal tissue model by measuring bi-directional transport with and without inhibition (FIG. 25C).

In data set [1] the test system is 3D printed tissues and 2D epithelial monolayers of Caco-2/STC-1 cells. In words: Lucifer Yellow permeability (barrier integrity) of 3D printed Caco-2 tissues and 2D monolayers. It is filed as in vitro ADME, human. As to conditions: bioprinted 3D constructs and 2D monolayers (Caco-2/STC-1), later stages of culture. How it is done: FIG. 5 is a bar graph showing permeability comparison of 2D monolayers and 3D bioprinted Caco-2 tissues measured by Lucifer Yellow. […] Permeability was measured on 3D printed tissues and compared to 2D epithelial monolayers of Caco-2/STC-1 cells and interstitium alone.
Experiment time course studies were run 4, 7, and 14 days post addition of epithelial cells. Tissues were measured for GLP-1 secretion into supernatant. Tissues were also measured for barrier function at multiple time points by TEER or Lucifer yellow (non-lytic assays). After incubation, the tissues were fixed in paraformaldehyde (PFA) for histology or lysed for RNA extraction.

Data set [2] relates to 3D bioprinted intestinal tissue. Nature of the data set: Barrier function (TEER) of 3D bioprinted intestinal tissue after toxicant treatment. The conditions noted are these: 24 hour incubation, varying doses.
For data set [3] the test system is unchanged. The conditions noted are these: higher / increasing doses of indomethacin.
Data set [4] deals with prostaglandin E2 synthesis. In words: Prostaglandin E2 synthesis in 3D bioprinted intestinal tissue. It is filed as cell-based, human. The conditions noted are these: all indomethacin doses tested.
Data set [5] has as its system 3D bioprinted intestinal tissue. In words: LDH activity / release from 3D bioprinted intestinal tissue after toxicant treatment.
Data set [6] shares this test system.
Data set [7] shares this test system. This is another data set of the same source.
The next data set concerns COX2, IL8, and TNFα. Nature of the data set: Inflammation gene expression after TNFα treatment of 3D bioprinted intestinal tissue. In kind it is cell-based, human. The conditions noted are these: TNFα high dose, 24 hours.

Experimental for COX2, IL8, and TNFα: To characterize the 3D bioprinted intestinal model response to inflammation, commonly associated with GI toxicity as well as chronic disease conditions, tissues were treated with a high dose of pro-inflammatory cytokine TNFα for 24 hours and evaluated for changes in morphology, LDH release, and gene expression (FIG. 28).

For `CC[C@@]1(O)C(=O)OCc2c1cc1n(c2=O)Cc2cc3c(CN(C)C)c(O)ccc3nc2-1` [topotecan], the efflux ratio on BCRP (control conditions) is reported as 8.8.
As to Lucifer yellow, the “Lucifer Yellow permeability” value in data set [1] is recorded as less than 3%.
Consider `COc1ccc2c(c1)c(CC(=O)O)c(C)n2C(=O)c1ccc(Cl)cc1` [indomethacin], for which the “barrier function measured by TEER” value in data set [2] is recorded as “dose response decrease in TEER; also recorded: dose-dependent decrease in barrier function; also recorded: decreased TEER”. In addition, in [3], the “E-Cadherin expression (marker of barrier function)” value is “reduction in E-Cadherin; also recorded: decreased expression of E-Cadherin”; the “histology of the epithelium” value is “disruption of the epithelium and distorted nuclear staining; also recorded: increased disruption of the epithelial layer”. Besides, the “prostaglandin E2 synthesis” value in data set [4] is “decreased to similar levels for all indomethacin doses tested; also recorded: inhibition of prostaglandin E2 synthesis”. The LDH activity entry in [5] (24 hour treatment, increasing indomethacin dose) is “increased”. For the same compound, the LDH release result in [5] (indomethacin doses above 0.25 mM) is listed as “significantly increased”.
Consider `C[C@H]1O[C@@H](O[C@H]2[C@@H](O)C[C@H](O[C@H]3[C@@H](O)C[C@H](O[C@H]4CC[C@@]5(C)[C@H](CC[C@@H]6[C@@H]5C[C@@H](O)[C@]5(C)[C@@H](C7=CC(=O)OC7)CC[C@]65O)C4)O[C@@H]3C)O[C@@H]2C)C[C@H](O)[C@@H]1O` [digoxin], for which the “permeability in the apical to basal direction” value in data set [6] was “moderate”.
Consider TNFα, for which, in data set [7], the barrier function result was “decreased barrier function”. Also, the “gene expression of COX2, IL8 and TNFα” value in the data set on COX2, IL8, and TNFα is “upregulated”.
As for `O=C1c2c(O)ccc(O)c2C(=O)c2c(NCCNCCO)ccc(NCCNCCO)c21` [mitoxantrone], the “permeability in the B to A direction compared with A to B” value on BCRP is “much higher permeability”.
